In patent publication US20210196731A1, “COMPOSITIONS AND METHODS FOR TREATING OCULAR INFLAMMATION AND OCULAR SCARRING” (priority 2018, published 2021):

Experiments:
Assay type in all cases: cell-based, human
HTCFs = assay: Lipid Mediator Secretion Assay II (ASA or APHS with and without gentamicin, LC-MS/MS); settings: for CytoM1+TGFb1 induced COX2 activity, as measured through PGE2 and kPGF1a secretion / secretion of acetylated-COX2 products, as measured through 5-HETE and 15-HETE secretion: ASA 500 or 1000 μg/ml, with or without gentamicin 250 or 500 μg/ml, 6-48 hrs; for secretion of acetylated-COX2 products, as measured through 5-HETE and 15-HETE secretion: CytoM1+TGFb1
Protocol: To this end, as before, multiple primary HTCF cell lines were cultured in DMEM w/10% FBS in 6-well culture plates, incubated at 37° C. and 5% CO2, until 90% confluent. The culture media was removed, wells washed with PBS, and then fresh DMEM w/0% FBS was added. After 24 hrs of serum starvation, fresh DMEM w/0% FBS was added, this time containing a physiologically relevant inflammation/wound healing induction mixture (1 ng/ml each of: IL-1b, TNFa, IFNγ, TGFb). After 12 hrs incubation, the induction media was removed, the wells were washed with PBS and fresh DMEM w/0% FBS was added containing one of ten experimental treatments for an incubation period of 48 hrs: 1) non-induced control (NIC: received DMEM w/0% FBS instead of the induction media), and 2) CytoM1+TGFB1 (DMEM w/0% FBS and 1 ng/ml each of: IL-1b, TNFa, IFNγ, TGFb), and 3) CytoM1/TGFB1/Gent250 (DMEM w/0% FBS, 1 ng/ml each of TGFB1, TGFB2, VEGF, CCN2 and 250 μg/ml gentamicin), and 4) CytoM1/TGFB1/Gent500 (DMEM w/0% FBS, 1 ng/ml each of TGFB1, TGFB2, VEGF, CCN2 and 500 μg/ml gentamicin), and 5) CytoM1/TGFB1/ASA500 (DMEM w/0% FBS, 1 ng/ml each of TGFB1, TGFB2, VEGF, CCN2, and 500 μg/ml ASA), and 6) CytoM1/TGFB1/ASA500/Gent250 (DMEM w/0% FBS, 1 ng/ml each of TGFB1, TGFB2, VEGF, CCN2, 500 μg/ml ASA and 250 μg/ml gentamicin), and 7) CytoM1/TGFB1/ASA1000 (DMEM w/0% FBS, 1 ng/ml each of TGFB1, TGFB2, VEGF, CCN2 and 1000 μg/ml ASA), and 8) CytoM1/TGFB1/ASA1000/Gent500 (DMEM w/0% FBS, 1 ng/ml each of TGFB1, TGFB2, VEGF, CCN2, 1000 μg/ml ASA, and 500 μg/ml gentamicin), and 9) CytoM1/TGFB1/APHS12 (DMEM w/0% FBS, 1 ng/ml each of TGFB1, TGFB2, VEGF, CCN2 and 12 μg/ml o-(acetoxyphenyl)hept-2-ynyl sulfide (APHS), and 10) CytoM1/TGFB1/APHS12/Gent250 (DMEM w/0% FBS, 1 ng/ml each of TGFB1, TGFB2, VEGF, CCN2, 12 μg/ml o-(acetoxyphenyl)hept-2-ynyl sulfide (APHS) and 250 μg/ml gentamicin). At 6, 12, 24 and 48 hrs after addition of the experimental treatments, 250 ul of supernatant was removed from each well, replaced with 250 ul of fresh DMEM w/0% FBS, and stored at −80° C. for subsequent LC-MS/MS analysis. After 48 hrs, the wells were washed with ice cold PBS three times and total cellular protein from the HTCF monolayer was collected for quantification and subsequent western blot analyses. The absolute quantity of protein within each culture well's HTCF monolayer was used as a means to standardize the relative secretion of lipid mediators by HTCFs into the culture well's supernatant.
This is a well-established method to determine the relative activity of cyclooxygenase, acetyl-COX2 and lipoxygenase biosynthetic pathways. In brief, the ratios of the integrated areas of the chromatographic peaks corresponding to each analyte and the integrated areas of the peaks corresponding to each analyte's internal standard (with known absolute quantity) are used to determine the relative quantity of each analyte in a given sample. After supernatant sample collection, 250 ul of methanol containing 100 μg of each deuterated internal standard was added. Samples were then vigorously vortexed and centrifuged at 10,000 g for 10 min before loading onto solid-phase extraction cartridges (Strata-X 33 um Polymeric Reversed Phase, 10 mg, Phenomenex 8B-S100-AAK), that were previously activated with 2 ml methanol and rinsed with 2 ml water. […] After washing with 5 ml water, extracts were eluted with 1 ml methanol. Solvent was then evaporated under vacuum in a SpeedVac centrifuge, and the extract was resuspended in 100 ul acetonitrile/water 60:40 (v/v). An aliquot of 20 ul was injected into the LC-MS/MS system for analysis. […] A Sciex Triple Quad 6500+ mass spectrometer with multiple reaction monitoring was used in negative ion mode. The chromatographic profile of the ion count for each m/z transition was monitored, and the area under the peaks (ion intensity vs elution time) was integrated using commercial software (MultiQuant, Sciex).

SMAD2/3 = assay: Western blot of HTCF protein lysate, SMAD2/3; settings: ASA 500 or 1000 μg/ml, APHS 12 μg/ml, 48 hrs
Protocol: (§1) Cells were lysed in lysis buffer (PhosphoSafe Extraction Reagent, Novagen) containing a protease inhibitor cocktail (P2714, Sigma-Aldrich). Crude protein lysate was quantified using a Pierce BCA protein assay kit (ThermoFisher, Mississauga, ON) and 10 ug from each sample was resolved using a Novex WedgeWell 4-20% tris-glycine gel (Invitrogen). Using an iBlot Gel Transfer Device (IB1001, Invitrogen), the separated protein was transferred to a nitrocellulose membrane (1B301001, iBlot Transfer Stack, Invitrogen) which was then blocked with 5% (w/v) bovine serum albumin (Sigma-Aldrich) in Tris buffered saline (TBST) for 1 hour at room temperature. The membranes were incubated overnight at 4° C. with primary antibody diluted in TBST containing 5% BSA (w/vol). […] Visualization was accomplished by applying WesternBright Quantum chemiluminescent reagent (Advansta, Inc.), with GAPDH used as a protein loading control. Imaging and relative densiometric quantification was accomplished using a ChemiDoc MP System (Bio-Rad Laboratories, Inc.) connected to Image Lab (Version 6, Bio-Rad Laboratories, Inc.).

pSMAD2/3 = assay: Western blot of HTCF protein lysate, pSMAD2/3; settings: ASA 500 or 1000 μg/ml, APHS 12 μg/ml, 48 hrs; for ratio of pSMAD2/3 to tSMAD2/3 (proportion of active to total SMAD2/3): AHGFs; for AHGF-induced levels of pSMAD2/3: with or without gentamicin 250 or 500 μg/ml
Protocol: as §1

SMILES | net enzymatic activity, acetylated-COX2 vs COX2 production of lipid mediators (HTCFs; APHS 12 μg/ml, alone or with gentamicin 250 μg/ml, vs inf. cytokines control) | CytoM1+TGFb1 induced COX2 activity, as measured through PGE2 and kPGF1a secretion (HTCFs; APHS 12 μg/ml) | secretion of acetylated-COX2 products, as measured through 5-HETE and 15-HETE secretion (HTCFs; APHS 12 μg/ml) | AHGF-induced expression of SMAD2/3 (SMAD2/3) | ratio of pSMAD2/3 to tSMAD2/3 (proportion of active to total SMAD2/3) (pSMAD2/3) | AHGF-induced levels of pSMAD2/3 (pSMAD2/3) | relative amount of COX2 products relative to inf. cytokines control (HTCFs; ASA 500 μg/ml) | balance of enzymatic activity (COX2:acetyl-COX2 ratio) (HTCFs; ASA 500 μg/ml, alone or with gentamicin 250) | relative amount of COX2 products relative to inf. cytokines control (HTCFs; ASA 1000 μg/ml) | balance of enzymatic activity (COX2:acetyl-COX2 ratio) (HTCFs; ASA 1000 μg/ml, alone or with gentamicin 500)
CCCCC#CCSc1ccccc1OC(C)=O [APHS, o-(acetoxyphenyl)hept-2-ynyl sulfide] | significantly shift the net enzymatic activity toward net acetylated-COX2 production of lipid mediators | significantly inhibit COX2 activity | profoundly and significantly increased the secretion of acetylated-COX2 products relative to all other treatment groups | significantly reduced | significantly reduce the proportion of active to total SMAD2/3 from AHGF-induced levels | significantly reduced | – | – | – | –
CC(=O)Oc1ccccc1C(=O)O [ASA, acetylsalicylic acid] | – | significantly inhibit CytoM1+TGFb1 induced COX2 activity | either no effect or a significantly smaller effect on acetylated-COX2 products relative to the ASA/Gent experimental group | significantly reduced | significantly reduce the proportion of active to total SMAD2/3 from AHGF-induced levels | significantly reduced | significantly reduce the relative amount of COX2 products relative to the inf. cytokines control group | positive values for the COX2:acetyl-COX2 ratio at all timepoints | significantly reduce the relative amount of COX2 products relative to the inf. cytokines control group | unable to significantly shift the balance of enzymatic activity toward net actyl-COX2 production relative to COX2 production
